{"source": "patent US8071735B2", "about": "“Cotton event MON 88913 and compositions and methods for detection thereof” (priority 2003, dated 2011)", "key": {"[1]": {"test_system": "Roundup Ready cotton event 1445", "test": "Field trial, cotton lint yield after glyphosate treatment (10 locations)", "format": "in vivo, Gossypium hirsutum", "text": "(§1) The field trials were arranged in a randomized split plot design with three replications and three treatments. The events were planted in two row, 30-foot plots. The treatments consisted of unsprayed, 64 oz/A (1.5 lb ae/A) Roundup Ultra® at the 4, 6, 10, 14-node stages, and 96 oz/A (2.25 lb ae/A) Roundup Ultra® at the 4, 6, 10, 14-node stages. A mid-season plant map was completed on ten plants per plot. Boll retention data was collected for the first and second fruiting positions of the first five fruiting nodes that provides a boll retention value scale of 0-10. A plant with a boll retention value equal to or greater than 3 on the 0-10 scale has value as a new glyphosate tolerant plant selection.\n(§2) Yield is a measure of boll retention, cotton plants engineered for glyphosate tolerance that retain a substantial number of bolls in the first and second fruiting positions will maintain a yield advantage over cotton plants that are not as glyphosate tolerant. An effective dose of a glyphosate containing herbicide to control weeds in a field of MON 88913 comprises about 4 oz/A and may exceed 128 oz/A depending on the species of weed to be controlled and the stage of weed development. Glyphosate can be mixed with other herbicides to enhance the herbicidal activity against certain weed species."}, "cotton event MON 88913": {"test_system": "cotton event MON 88913", "test": "Field trial, cotton lint yield after glyphosate treatment (10 locations)", "format": "in vivo, Gossypium hirsutum", "text": "as §1, §2"}, "[2]": {"conditions": "glyphosate 1.5 lb ae/A (64 oz/A Roundup Ultra) at the 4, 6, 10, 14-node stages"}, "[3]": {"conditions": "glyphosate 2.25 lb ae/A (96 oz/A Roundup Ultra) at the 4, 6, 10, 14-node stages"}}, "data": [{"smiles": "O=C(O)CNCP(=O)(O)O", "note": "[Glyphosate, N-phosphonomethylglycine]", "values": [{"measurement": "Yield (lb/A) of 10 Locations, cotton lint", "setting": "[1]; [2]", "result": 1044.19, "unit": "lb/A"}, {"measurement": "Yield (lb/A) of 10 Locations, cotton lint", "setting": "[1]; [3]", "result": 831.47, "unit": "lb/A"}, {"measurement": "Yield (lb/A) of 10 Locations, cotton lint", "setting": "cotton event MON 88913; [2]", "result": 2587.61, "unit": "lb/A"}, {"measurement": "Yield (lb/A) of 10 Locations, cotton lint", "setting": "cotton event MON 88913; [3]", "result": 2412.3, "unit": "lb/A"}]}]}
